For seven cell lines, relative viability results are on record in the supplement of paper PMC10307832.

Assay in all cases: relative viability (nuclei count vs DMSO), 5 days (fraction); higher = more cells survive
Compound in the experiment “Idelalisib + Luminespib”: CC[C@H](Nc1ncnc2[nH]cnc12)c1nc2cccc(F)c2c(=O)n1-c1ccccc1 [Idelalisib] + CCNC(=O)c1noc(-c2cc(C(C)C)c(O)cc2O)c1-c1ccc(CN2CCOCC2)cc1 [Luminespib] (partner 0.01 µM)
The method in brief: (§1)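 After 5 days of treatment, lung cancer cells in 1536-well plates were fixed and stained in a single step (final 0.05% Triton X-100, 1% formaldehyde, 1 ug/ml Hoechst) and their nuclei counted on 4× images. Treatment had been applied by pin tool the day after seeding as one drug alone or as a fixed anchor-drug dose with five library-drug doses (not always all listed) in √10 steps. Relative viability is the nuclei count of treated wells divided by that of vehicle wells, and values are medians of duplicate plates.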

Compound in the experiment “Idelalisib + Phenformin”: CC[C@H](Nc1ncnc2[nH]cnc12)c1nc2cccc(F)c2c(=O)n1-c1ccccc1 [Idelalisib] + N=C(N)NC(=N)NCCc1ccccc1 [Phenformin] (partner 250 µM)
In a few lines:
as §1

Compound in the experiment “Pemetrexed + Alpelisib”: Nc1nc2[nH]cc(CCc3ccc(C(=O)N[C@@H](CCC(=O)O)C(=O)O)cc3)c2c(=O)[nH]1 [Pemetrexed] + Cc1nc(NC(=O)N2CCC[C@H]2C(N)=O)sc1-c1ccnc(C(C)(C)C(F)(F)F)c1 [Alpelisib] (partner 2 µM)
In a few lines:
as §1

Compound in the experiment “Pemetrexed + Vorinostat”: Nc1nc2[nH]cc(CCc3ccc(C(=O)N[C@@H](CCC(=O)O)C(=O)O)cc3)c2c(=O)[nH]1 [Pemetrexed] + O=C(CCCCCCC(=O)Nc1ccccc1)NO [Vorinostat] (partner 1 µM)
The method in brief:
as §1

PC-3 [JPC-3]: the relative viability in the experiment with Idelalisib + Luminespib (first compound 0.04 µM) is 0.487; in the experiment with Idelalisib + Luminespib (first compound 0.1265 µM) it was 0.65; with Idelalisib + Luminespib (first compound 0.4 µM), 0.69; with Idelalisib + Luminespib (first compound 1.265 µM), 0.65; with Idelalisib + Luminespib (first compound 4 µM) it was 0.497; in the experiment with Idelalisib + Phenformin (first compound 0.04 µM), 0.454. Besides, the relative viability is 0.484 with Idelalisib + Phenformin (first compound 0.1265 µM); 0.477 with Idelalisib + Phenformin (first compound 0.4 µM); 0.451 in the experiment with Idelalisib + Phenformin (first compound 1.265 µM); 0.42 with Idelalisib + Phenformin (first compound 4 µM); 0.948 in the experiment with Pemetrexed + Alpelisib (first compound 0.002 µM); 1.04 in the experiment with Pemetrexed + Alpelisib (first compound 0.006325 µM). Further, the relative viability with Pemetrexed + Alpelisib (first compound 0.02 µM) worked out at 1.04; in the experiment with Pemetrexed + Alpelisib (first compound 0.06325 µM) it was 1.03; in the experiment with Pemetrexed + Alpelisib (first compound 0.2 µM), 0.972; with Pemetrexed + Vorinostat (first compound 0.002 µM), 0.628; with Pemetrexed + Vorinostat (first compound 0.006325 µM) it was 1.15; with Pemetrexed + Vorinostat (first compound 0.02 µM) it was 0.837. Further, the results for the relative viability in the experiment with Pemetrexed + Vorinostat (first compound 0.06325 µM) and with Pemetrexed + Vorinostat (first compound 0.2 µM) were 0.922 and 0.782, respectively.

With NCI-H2126, the relative viability with Idelalisib + Luminespib (first compound 0.04 µM) was determined as 0.929; in the experiment with Idelalisib + Luminespib (first compound 0.1265 µM) it was 0.893; with Idelalisib + Luminespib (first compound 0.4 µM), 0.802; in the experiment with Idelalisib + Luminespib (first compound 1.265 µM), 0.961; with Idelalisib + Luminespib (first compound 4 µM), 0.929; with Idelalisib + Phenformin (first compound 0.04 µM), 0.575. The relative viability with Idelalisib + Phenformin (first compound 0.1265 µM) was found to be 0.57; with Idelalisib + Phenformin (first compound 0.4 µM), 0.441; with Idelalisib + Phenformin (first compound 1.265 µM), 0.528; with Idelalisib + Phenformin (first compound 4 µM), 0.527; with Pemetrexed + Alpelisib (first compound 0.002 µM), 0.737; with Pemetrexed + Alpelisib (first compound 0.006325 µM), 0.758. Further, the relative viability with Pemetrexed + Alpelisib (first compound 0.02 µM) worked out at 0.75; with Pemetrexed + Alpelisib (first compound 0.06325 µM), 0.703; with Pemetrexed + Alpelisib (first compound 0.2 µM) it was 0.742; in the experiment with Pemetrexed + Vorinostat (first compound 0.002 µM) it was 0.638; with Pemetrexed + Vorinostat (first compound 0.006325 µM) it was 0.719; in the experiment with Pemetrexed + Vorinostat (first compound 0.02 µM) it was 0.777. Further, the results for the relative viability in the experiment with Pemetrexed + Vorinostat (first compound 0.06325 µM) and in the experiment with Pemetrexed + Vorinostat (first compound 0.2 µM) were 0.798 and 0.688, respectively.

LU99A: the relative viability with Idelalisib + Luminespib (first compound 0.04 µM) turned out to be 0.217; with Idelalisib + Luminespib (first compound 0.1265 µM), 0.274; in the experiment with Idelalisib + Luminespib (first compound 0.4 µM), 0.238; with Idelalisib + Luminespib (first compound 1.265 µM), 0.285; with Idelalisib + Luminespib (first compound 4 µM), 0.243; in the experiment with Idelalisib + Phenformin (first compound 0.04 µM), 1.06. Moreover, the relative viability was determined as 0.836 with Idelalisib + Phenformin (first compound 0.1265 µM); 0.737 in the experiment with Idelalisib + Phenformin (first compound 0.4 µM); 0.988 in the experiment with Idelalisib + Phenformin (first compound 1.265 µM); 1.01 with Idelalisib + Phenformin (first compound 4 µM); 0.517 with Pemetrexed + Alpelisib (first compound 0.002 µM); 0.556 in the experiment with Pemetrexed + Alpelisib (first compound 0.006325 µM). The relative viability was found to be 0.492 with Pemetrexed + Alpelisib (first compound 0.02 µM); 0.498 with Pemetrexed + Alpelisib (first compound 0.06325 µM); 0.346 in the experiment with Pemetrexed + Alpelisib (first compound 0.2 µM); 0.488 in the experiment with Pemetrexed + Vorinostat (first compound 0.002 µM); 0.464 with Pemetrexed + Vorinostat (first compound 0.006325 µM); 0.495 in the experiment with Pemetrexed + Vorinostat (first compound 0.02 µM). The relative viability with Pemetrexed + Vorinostat (first compound 0.06325 µM) came to 0.466; with Pemetrexed + Vorinostat (first compound 0.2 µM), 0.385.

For NCI-H23, the relative viability with Idelalisib + Luminespib (first compound 0.04 µM) amounted to 0.219; with Idelalisib + Luminespib (first compound 0.1265 µM) it was 0.221; with Idelalisib + Luminespib (first compound 4 µM), 0.196; with Idelalisib + Phenformin (first compound 0.04 µM), 0.713; in the experiment with Idelalisib + Phenformin (first compound 0.1265 µM), 0.845; in the experiment with Idelalisib + Phenformin (first compound 0.4 µM), 0.792. Also, the relative viability is 0.776 with Idelalisib + Phenformin (first compound 4 µM); 0.666 with Pemetrexed + Alpelisib (first compound 0.002 µM); 0.532 in the experiment with Pemetrexed + Alpelisib (first compound 0.006325 µM); 0.741 with Pemetrexed + Alpelisib (first compound 0.02 µM); 0.503 with Pemetrexed + Alpelisib (first compound 0.06325 µM); 0.601 with Pemetrexed + Alpelisib (first compound 0.2 µM). For the same cell line, the relative viability was found to be 0.464 with Pemetrexed + Vorinostat (first compound 0.002 µM); 0.592 with Pemetrexed + Vorinostat (first compound 0.006325 µM); 0.77 with Pemetrexed + Vorinostat (first compound 0.02 µM); 0.713 with Pemetrexed + Vorinostat (first compound 0.06325 µM); 0.62 with Pemetrexed + Vorinostat (first compound 0.2 µM).

As for PC-14, the relative viability in the experiment with Idelalisib + Luminespib (first compound 0.04 µM) turned out to be 0.158; with Idelalisib + Luminespib (first compound 0.1265 µM) it was 0.136; with Idelalisib + Luminespib (first compound 0.4 µM) it was 0.127; with Idelalisib + Luminespib (first compound 1.265 µM), 0.154; with Idelalisib + Luminespib (first compound 4 µM) it was 0.123; with Idelalisib + Phenformin (first compound 0.04 µM), 0.746. The relative viability was determined as 0.784 in the experiment with Idelalisib + Phenformin (first compound 0.1265 µM); 0.516 with Idelalisib + Phenformin (first compound 0.4 µM); 0.409 with Idelalisib + Phenformin (first compound 1.265 µM); 0.669 with Idelalisib + Phenformin (first compound 4 µM); 0.897 with Pemetrexed + Alpelisib (first compound 0.002 µM); 0.958 in the experiment with Pemetrexed + Alpelisib (first compound 0.006325 µM). For the same cell line, the relative viability with Pemetrexed + Alpelisib (first compound 0.02 µM) was found to be 0.931; with Pemetrexed + Alpelisib (first compound 0.06325 µM) it was 0.535; in the experiment with Pemetrexed + Alpelisib (first compound 0.2 µM), 0.158; with Pemetrexed + Vorinostat (first compound 0.002 µM), 0.656; in the experiment with Pemetrexed + Vorinostat (first compound 0.006325 µM), 0.636; with Pemetrexed + Vorinostat (first compound 0.02 µM) it was 0.775. Besides, the relative viability with Pemetrexed + Vorinostat (first compound 0.06325 µM) turned out to be 0.226; in the experiment with Pemetrexed + Vorinostat (first compound 0.2 µM), 0.123.

With HCC-44, the relative viability with Idelalisib + Luminespib (first compound 0.04 µM) came to 1.25; with Idelalisib + Luminespib (first compound 0.1265 µM), 1.06; with Idelalisib + Luminespib (first compound 0.4 µM), 0.852; with Idelalisib + Luminespib (first compound 1.265 µM), 1.18; in the experiment with Idelalisib + Luminespib (first compound 4 µM) it was 1.05; with Idelalisib + Phenformin (first compound 0.04 µM) it was 0.201. Further, the relative viability with Idelalisib + Phenformin (first compound 0.1265 µM) turned out to be 0.229; with Idelalisib + Phenformin (first compound 0.4 µM), 0.177; with Idelalisib + Phenformin (first compound 1.265 µM), 0.235; with Idelalisib + Phenformin (first compound 4 µM), 0.153; with Pemetrexed + Alpelisib (first compound 0.002 µM), 0.771; with Pemetrexed + Alpelisib (first compound 0.006325 µM) it was 0.732. Also, the relative viability with Pemetrexed + Alpelisib (first compound 0.02 µM) was 0.854; with Pemetrexed + Alpelisib (first compound 0.06325 µM), 0.785; with Pemetrexed + Alpelisib (first compound 0.2 µM), 0.602; with Pemetrexed + Vorinostat (first compound 0.002 µM), 0.972; in the experiment with Pemetrexed + Vorinostat (first compound 0.006325 µM), 1.11; in the experiment with Pemetrexed + Vorinostat (first compound 0.02 µM) it was 1.14. Moreover, the values for the relative viability with Pemetrexed + Vorinostat (first compound 0.06325 µM) and with Pemetrexed + Vorinostat (first compound 0.2 µM) were 1.11 and 1.13, respectively.

Take A-427: the relative viability with Idelalisib + Luminespib (first compound 0.04 µM) worked out at 0.833; with Idelalisib + Luminespib (first compound 0.1265 µM), 0.857; with Idelalisib + Luminespib (first compound 0.4 µM) it was 0.744; with Idelalisib + Luminespib (first compound 1.265 µM), 0.879; in the experiment with Idelalisib + Luminespib (first compound 4 µM), 0.783; in the experiment with Idelalisib + Phenformin (first compound 0.04 µM) it was 0.36. The relative viability in the experiment with Idelalisib + Phenformin (first compound 0.1265 µM) came to 0.318; with Idelalisib + Phenformin (first compound 0.4 µM), 0.287; with Idelalisib + Phenformin (first compound 1.265 µM), 0.372; with Idelalisib + Phenformin (first compound 4 µM), 0.328; with Pemetrexed + Alpelisib (first compound 0.002 µM), 1.09; with Pemetrexed + Alpelisib (first compound 0.006325 µM) it was 1.1. The relative viability was 1.05 in the experiment with Pemetrexed + Alpelisib (first compound 0.02 µM); 1.1 with Pemetrexed + Alpelisib (first compound 0.06325 µM); 1.04 in the experiment with Pemetrexed + Alpelisib (first compound 0.2 µM); 0.855 in the experiment with Pemetrexed + Vorinostat (first compound 0.002 µM); 0.865 in the experiment with Pemetrexed + Vorinostat (first compound 0.006325 µM); 0.867 with Pemetrexed + Vorinostat (first compound 0.02 µM). For the same cell line, the figures for the relative viability with Pemetrexed + Vorinostat (first compound 0.06325 µM) and in the experiment with Pemetrexed + Vorinostat (first compound 0.2 µM) were 0.876 and 0.708, respectively.
